{
  "source": "patent US8202996B2",
  "about": "“Crystalline forms of N-(tert-butoxycarbonyl)-3-methyl-L-valyl-(4R)-4-((7-chloro-4-methoxy-1-isoquinolinyl)oxy)-N- ((1R,2S)-1-((cyclopropylsulfonyl)carbamoyl)-2-vinylcyclopropyl)-L-prolinamide” (Bristol-Myers Squibb Company, priority 2007, dated 2012)",
  "key": {"[1]": {"experiment": "Interconversion of Forms H-1 and T1F-1/2 as a function of relative humidity", "format": "physicochemical", "details": "solid state, FIG. 1"}, "[2]": {"experiment": "Crystal form in aqueous solution / suspension in water", "format": "physicochemical", "details": "aqueous solutions / suspended in water"}},
  "data": [
    {"smiles": "C=C[C@@H]1C[C@]1(NC(=O)[C@@H]1C[C@@H](Oc2ncc(OC)c3ccc(Cl)cc23)CN1C(=O)[C@@H](NC(=O)OC(C)(C)C)C(C)(C)C)C(=O)NS(=O)(=O)C1CC1", "note": "[Form T1F-1/2, N-(tert-butoxycarbonyl)-3-methyl-L-valyl-(4R)-4-((7-chloro-4-methoxy-1-isoquinolinyl)oxy)-N-((1R,2S)-1-((cyclopropylsulfonyl)carbamoyl)-2-vinylcyclopropyl)-L-prolinamide]", "values": [
      {"measurement": "relative humidity at which Compound (I) exists as this crystalline form", "setting": "[1]", "value": "< 15", "unit": "% relative humidity"},
      {"measurement": "form stability in water", "setting": "[2]", "value": "rapidly converts to H-1"}
    ]},
    {"smiles": "C=C[C@@H]1C[C@]1(NC(=O)[C@@H]1C[C@@H](Oc2ncc(OC)c3ccc(Cl)cc23)CN1C(=O)[C@@H](NC(=O)OC(C)(C)C)C(C)(C)C)C(=O)NS(=O)(=O)C1CC1", "note": "[Compound (I), N-(tert-butoxycarbonyl)-3-methyl-L-valyl-(4R)-4-((7-chloro-4-methoxy-1-isoquinolinyl)oxy)-N-((1R,2S)-1-((cyclopropylsulfonyl)carbamoyl)-2-vinylcyclopropyl)-L-prolinamide]", "values": [
      {"measurement": "relative humidity at which Compound (I) exists as a mixture of H-1 and T1F-1/2", "setting": "[1]", "value": "15-45 % relative humidity"},
      {"measurement": "form stability in water", "setting": "[2]", "value": "exists as H-1"}
    ]},
    {"smiles": "C=C[C@@H]1C[C@]1(NC(=O)[C@@H]1C[C@@H](Oc2ncc(OC)c3ccc(Cl)cc23)CN1C(=O)[C@@H](NC(=O)OC(C)(C)C)C(C)(C)C)C(=O)NS(=O)(=O)C1CC1", "note": "[Form H-1, N-(tert-butoxycarbonyl)-3-methyl-L-valyl-(4R)-4-((7-chloro-4-methoxy-1-isoquinolinyl)oxy)-N-((1R,2S)-1-((cyclopropylsulfonyl)carbamoyl)-2-vinylcyclopropyl)-L-prolinamide]", "values": [
      {"measurement": "relative humidity at which Compound (I) exists as this crystalline form", "setting": "[1]", "value": "> 45", "unit": "% relative humidity"}
    ]}
  ]
}
